From patent publication US10336762B2 (priority 2017, dated 2019)
Where two headings read alike, the source gives them in different places.

How the values were obtained:
[1] = target: IRAK4 enzyme (Homo sapiens (Human), UniProt Q9NWZ3); assay: biochemical; assay type: biochemical; settings: IRAK4 enzyme, 500 μM ATP
[2] = tested on: TNFα; assay: cells; assay type: cell-based, human; settings: Homo sapiens, Monocyte, LPS-stimulated human monocytes, read-out: EC50 TNF

IRAK4 enzyme, sequence (Q9NWZ3 whole entry): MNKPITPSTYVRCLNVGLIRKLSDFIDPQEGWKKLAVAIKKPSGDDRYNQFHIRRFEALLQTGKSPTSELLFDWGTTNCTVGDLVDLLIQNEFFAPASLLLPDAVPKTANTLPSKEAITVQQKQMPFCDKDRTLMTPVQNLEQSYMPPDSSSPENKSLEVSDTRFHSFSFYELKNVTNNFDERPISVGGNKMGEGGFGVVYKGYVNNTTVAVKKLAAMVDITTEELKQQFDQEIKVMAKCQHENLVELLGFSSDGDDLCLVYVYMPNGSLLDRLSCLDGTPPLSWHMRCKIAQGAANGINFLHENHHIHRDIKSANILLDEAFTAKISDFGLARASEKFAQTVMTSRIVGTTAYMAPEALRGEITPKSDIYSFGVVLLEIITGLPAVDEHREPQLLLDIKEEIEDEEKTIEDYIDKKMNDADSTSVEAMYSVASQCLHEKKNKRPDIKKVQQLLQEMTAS

Work on `CC(C)(O)[C@H](F)CNC(=O)c1cnc(-c2ccc3cc(C#N)cnn23)cc1Nc1ccc2ncsc2c1` [Example 572, (R)-4-(benzo[d]thiazol-6-ylamino)-6-(3-cyano-pyrrolo[1,2-b]pyridazin-7-yl)-N-(2-fluoro-3-hydroxy-3-methylbutyl)nicotinamide] yielded an IC50 ([1]; TR-FRET (HTRF)) of less than 1 nM and an EC50 ([2]; TNFα content) of 66 nM.

Work on `CC(C)(O)[C@H](F)CNC(=O)c1cnc(-c2ccc3cc(C#N)cnn23)cc1Nc1ccc(CO)nc1` [Example 664, (R)-6-(3-cyanopyrrolo[1,2-b]pyridazin-7-yl)-N-(2-fluoro-3-hydroxy-3-methylbutyl)-4-((6-(hydroxymethyl)pyridin-3-yl)amino)nicotinamide] yielded an IC50 ([1]; TR-FRET (HTRF)) of less than 1 nM and an EC50 ([2]; TNFα content) of 14 nM.

For `CC(C)(O)[C@H](F)CNC(=O)c1cnc(-c2ccc3cc(C#N)cnn23)cc1Nc1cccc(C(N)=O)c1` [Example 383, (R)-4-((3-carbamoyl-phenyl)amino)-6-(3-cyanopyrrolo[1,2-b]pyridazin-7-yl)-N-(2-fluoro-3-hydroxy-3-methylbutyl)nicotinamide], the IC50 ([1]; TR-FRET) was less than 1 nM and the EC50 ([2]; TNFα content) was 144 nM.

With `CN1CCN(C(=O)NC[C@H]2C[C@H](Nc3cc(-c4ccc5cc(C#N)cnn45)ncc3C(=O)NC[C@@H](F)C(C)(C)O)C2)CC1` [Example 793, N-(((1R,3r)-3-((2-(3-cyanopyrrolo[1,2-b]pyridazin-7-yl)-5-(((R)-2-fluoro-3-hydroxy-3-methylbutyl)carbamoyl)pyridin-4-yl)amino)cyclobutyl)methyl)-4-methylpiperazine-1-carboxamide] the IC50 ([1]; TR-FRET (HTRF)) was 3 nM and the EC50 ([2]; TNFα content) was 598 nM.

`CC(C)(O)[C@H](F)CNC(=O)c1cnc(-c2ccc3cc(C#N)cnn23)cc1N[C@@H]1CNCCC1(F)F` [Example 240, 6-(3-cyanopyrrolo[1,2-b]pyridazin-7-yl)-4-(((R)-4,4-difluoropiperidin-3-yl)amino)-N-((R)-2-fluoro-3-hydroxy-3-methylbutyl) nicotinamide] was tested, and the IC50 ([1]; TR-FRET) was 1 nM and the EC50 ([2]; TNFα content) was 27 nM.

`CC(C)(O)[C@H](F)CNC(=O)c1cnc(-c2ccc3cc(C#N)cnn23)cc1N[C@H]1C[C@H](Cn2cc(C3CC3)nn2)C1` [Example 704, 6-(3-cyanopyrrolo[1,2-b]pyridazin-7-yl)-4-(((1r,3R)-3-((4-cyclopropyl-1H-1,2,3-triazol-1-yl)methyl)cyclobutyl)amino)-N—((R)-2-fluoro-3-hydroxy-3-methylbutyl)nicotinamide] was tested, and the IC50 ([1]; TR-FRET (HTRF)) was 1 nM and the EC50 ([2]; TNFα content) was 69 nM.

For `CC(C)(O)[C@H](F)CNC(=O)c1cnc(-c2ccc3cc(C#N)cnn23)cc1N[C@H]1C[C@H](CNC(=O)OCC(F)F)C1` [Example 728, 2,2-difluoroethyl (((1R,3r)-3-((2-(3-cyanopyrrolo[1,2-b]pyridazin-7-yl)-5-(((R)-2-fluoro-3-hydroxy-3-methylbutyl)carbamoyl)pyridin-4-yl)amino)cyclo-butyl)methyl)carbamate], the IC50 ([1]; TR-FRET (HTRF)) was less than 1 nM and the EC50 ([2]; TNFα content) was 4 nM.

Compound `CCc1ncc(Nc2cc(-c3ccc4cc(C#N)cnn34)ncc2C(=O)NC[C@@H](F)C(C)(C)O)cn1` [Example 680, (R)-6-(3-cyanopyrrolo[1,2-b]pyridazin-7-yl)-4-((2-ethylpyrimidin-5-yl)amino)-N-(2-fluoro-3-hydroxy-3-methylbutyl)nicotinamide] has an IC50 ([1]; TR-FRET (HTRF)) of less than 1 nM and an EC50 ([2]; TNFα content) of 15 nM.

Compound `N#Cc1cnn2c(-c3cc(NC4COC4)c(C(=O)N[C@H]4CC[C@H](NC(=O)C5CC5)CC4)cn3)ccc2c1` [Example 526, 6-(3-cyanopyrrolo[1,2-b]pyridazin-7-yl)-N-((1r,4r)-4-(cyclopropane-carboxamido)cyclohexyl)-4-(oxetan-3-ylamino) nicotinamide] has an IC50 ([1]; TR-FRET (HTRF)) of 1 nM and an EC50 ([2]; TNFα content) of 99 nM.

`N#Cc1cnn2c(-c3cc(NC45CCC(O)(CC4)CC5)c(C(=O)NCC(=O)c4ccccc4)cn3)ccc2c1` [Example 811, 6-(3-cyanopyrrolo[1,2-b]pyridazin-7-yl)-4-((4-hydroxybicyclo[2.2.2]octan-1-yl)amino)-N-(2-oxo-2-phenylethyl) nicotinamide] was tested, and the IC50 ([1]; TR-FRET) was less than 1 nM and the EC50 ([2]; TNFα by TR-FRET) was 32 nM.

In the case of `N#Cc1cnn2c(-c3cc(NC45CCC(O)(CC4)CC5)c(C(=O)NCC4CCO4)cn3)ccc2c1` (centres unmarked) [Example 616, 6-(3-cyanopyrrolo[1,2-b]pyridazin-7-yl)-4-((4-hydroxybicyclo[2.2.2]octan-1-yl)amino)-N-(oxetan-2-ylmethyl) nicotinamide], the IC50 ([1]; TR-FRET (HTRF)) is reported as 2 nM and the EC50 ([2]; TNFα content) is reported as 144 nM.

`CC(C)(O)[C@H](F)CNC(=O)c1cnc(-c2ccc3cc(C#N)cnn23)cc1N[C@@H]1[C@@H]2COC[C@@H]21` [Example 148, 4-(((1R,5S,6s)-3-oxabicyclo[3.1.0]hexan-6-yl)amino)-6-(3-cyano-pyrrolo[1,2-b]pyridazin-7-yl)-N-((R)-2-fluoro-3-hydroxy-3-methylbutyl)nicotinamide] showed an IC50 ([1]; TR-FRET) of 2 nM and an EC50 ([2]; TNFα content) of 206 nM.

`CC(C)(O)[C@H](F)CNC(=O)c1cnc(-c2ccc3cc(C#N)cnn23)cc1Nc1ccc2c(c1)CNC2` [Example 863, (R)-6-(3-cyanopyrrolo[1,2-b]pyridazin-7-yl)-N-(2-fluoro-3-hydroxy-3-methylbutyl)-4-(isoindolin-5-ylamino)nicotinamide] gave an IC50 ([1]; TR-FRET) of less than 1 nM and an EC50 ([2]; TNFα by TR-FRET) of 74 nM.

For `COC(=O)N[C@H]1C[C@H](CNC(=O)c2cnc(-c3ccc4cc(C#N)cnn34)cc2NC23CCC(O)(CC2)CC3)C1` [Example 733, methyl ((1r,3r)-3-((6-(3-cyanopyrrolo[1,2-b]pyridazin-7-yl)-4-((4-hydroxybicyclo[2.2.2]octan-1-yl)amino)nicotin-amido)methyl)cyclobutyl) carbamate], the IC50 ([1]; TR-FRET (HTRF)) was 2 nM and the EC50 ([2]; TNFα content) was 248 nM.

`CNC(=O)c1cnc(-c2ccc3cc(C#N)cnn23)cc1N[C@H]1CC[C@H](NC(C)=O)CC1` [Example 276, 4-(((1r,4r)-4-acetamidocyclohexyl)amino)-6-(3-cyano-pyrrolo[1,2-b]pyridazin-7-yl)-N-methylnicotinamide] gave an IC50 ([1]; TR-FRET) of 3 nM and an EC50 ([2]; TNFα content) of 146 nM.

`N#Cc1cnn2c(-c3cc(N[C@H]4CCC[C@@H](O)C4)c(C(=O)NC4CC5(C4)CC(F)(F)C5)cn3)ccc2c1` [Example 427, 6-(3-cyanopyrrolo[1,2-b]pyridazin-7-yl)-N-(6,6-difluorospiro[3.3]heptan-2-yl)-4-(((1S,3R)-3-hydroxycyclohexyl)amino) nicotinamide] showed an IC50 ([1]; TR-FRET (HTRF)) of 2 nM and an EC50 ([2]; TNFα content) of 278 nM.

Work on `COc1ncc(Nc2cc(-c3ccc4cc(C#N)cnn34)ncc2C(=O)NC[C@@H](F)C(C)(C)O)cn1` [Example 590, (R)-6-(3-cyanopyrrolo[1,2-b]pyridazin-7-yl)-N-(2-fluoro-3-hydroxy-3-methylbutyl)-4-((2-methoxypyrimidin-5-yl)amino)nicotinamide] yielded an IC50 ([1]; TR-FRET (HTRF)) of less than 1 nM and an EC50 ([2]; TNFα content) of 38 nM.

`CC(C)(O)[C@H](F)CNC(=O)c1cnc(-c2ccc3cc(C#N)cnn23)cc1N[C@H]1CCC[C@H](O)C1` [Example 63, 6-(3-cyanopyrrolo[1,2-b]pyridazin-7-yl)-N-((R)-2-fluoro-3-hydroxy-3-methylbutyl)-4-(((1S,3S)-3-hydroxycyclohexyl)amino) nicotinamide] gave an IC50 ([1]; TR-FRET) of less than 1 nM and an EC50 ([2]; TNFα content) of 57 nM.

With `CN(C)C(=O)NC[C@H]1C[C@H](Nc2cc(-c3ccc4cc(C#N)cnn34)ncc2C(=O)NC[C@@H](F)C(C)(C)O)C1` [Example 541, 6-(3-cyanopyrrolo[1,2-b]pyridazin-7-yl)-4-(((1r,3R)-3-((3,3-dimethyl-ureido)methyl)cyclobutyl)amino)-N-((R)-2-fluoro-3-hydroxy-3-methylbutyl) nicotinamide] the IC50 ([1]; TR-FRET (HTRF)) was less than 1 nM and the EC50 ([2]; TNFα content) was 65 nM.
